Assay results reported in BindingDB's records for doi:10.1016/j.chembiol.2004.03.022 (Cyclacel, 2004).

Assays:
Assay in all cases: Kinase Inhibition Assay
[1] = biological target: Cyclin-dependent kinase 4 (Homo sapiens, UniProt P11802)
Text: (§1) In vitro kinase inhibition assay.

[2] = biological target: Cyclin-dependent kinase 2 (Homo sapiens, UniProt P24941)
Text: as §1

G1/S-specific cyclin-D1 = G1/S-specific cyclin-D1 (Homo sapiens, UniProt P24385)
Text: as §1

G1/S-specific cyclin-E1 = G1/S-specific cyclin-E1 (Homo sapiens, UniProt P24864)
Chain of G1/S-specific cyclin-E1 (P24864 whole entry): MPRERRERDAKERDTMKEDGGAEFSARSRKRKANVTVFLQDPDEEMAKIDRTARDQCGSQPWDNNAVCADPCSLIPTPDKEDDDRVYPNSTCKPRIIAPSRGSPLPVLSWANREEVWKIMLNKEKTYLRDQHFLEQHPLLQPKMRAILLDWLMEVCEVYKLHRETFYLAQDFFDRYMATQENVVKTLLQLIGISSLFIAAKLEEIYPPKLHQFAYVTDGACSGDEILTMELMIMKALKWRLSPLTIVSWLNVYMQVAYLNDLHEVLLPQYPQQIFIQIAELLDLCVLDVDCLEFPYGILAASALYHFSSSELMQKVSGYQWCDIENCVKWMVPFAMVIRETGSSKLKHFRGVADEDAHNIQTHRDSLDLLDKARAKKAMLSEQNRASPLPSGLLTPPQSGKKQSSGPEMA
Text: as §1

Chain of G1/S-specific cyclin-D1 (P24385 whole entry): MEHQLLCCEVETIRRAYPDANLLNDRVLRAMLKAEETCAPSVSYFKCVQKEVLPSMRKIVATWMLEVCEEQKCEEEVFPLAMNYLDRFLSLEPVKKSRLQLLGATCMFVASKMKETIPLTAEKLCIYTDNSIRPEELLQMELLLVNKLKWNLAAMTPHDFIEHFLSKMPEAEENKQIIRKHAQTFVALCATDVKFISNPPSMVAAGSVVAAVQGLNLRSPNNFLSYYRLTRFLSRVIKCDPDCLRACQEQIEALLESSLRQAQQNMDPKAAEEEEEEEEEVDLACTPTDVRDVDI
Chain of Cyclin-dependent kinase 4 (P11802 whole entry): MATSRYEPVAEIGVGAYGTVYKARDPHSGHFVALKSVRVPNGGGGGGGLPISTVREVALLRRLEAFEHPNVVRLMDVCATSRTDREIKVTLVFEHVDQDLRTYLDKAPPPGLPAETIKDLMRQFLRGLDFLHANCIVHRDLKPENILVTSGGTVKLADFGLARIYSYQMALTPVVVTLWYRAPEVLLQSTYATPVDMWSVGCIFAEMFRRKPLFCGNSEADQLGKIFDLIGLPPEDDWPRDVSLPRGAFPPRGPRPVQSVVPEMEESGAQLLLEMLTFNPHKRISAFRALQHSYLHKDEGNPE

Row | Structure (SMILES) | IC50 [1] [nM] | IC50 [2] [nM] | IC50 (G1/S-specific cyclin-D1) [nM] | IC50 (G1/S-specific cyclin-E1) [nM]
1 | O=C1c2ccccc2-[n+]2ccc3c([nH]c4ccccc43)c21 | 350 | > 50000 |  | 
2 | Cc1nc(N)sc1-c1ccnc(Nc2ccc(N3CCOCC3)cc2)n1 [2-amino-4-methyl-1,3-thiazol-5-yl)-N-[4-(morpholin-4-yl)phenyl]pyrimidin-2-amine, 5] |  |  | 2400 | 
3 | CNc1nc(C)c(-c2ccnc(Nc3cccc(CN)c3)n2)s1 [Aminopyrimidine, 1] |  |  | 230 | 410
4 | CCNc1nc(C)c(-c2ccnc(Nc3cccc(CN)c3)n2)s1 [Aminopyrimidine, 2] |  |  | 110 | 330
5 | CNc1nc(C)c(-c2ccnc(Nc3cccc(CNC(C)=O)c3)n2)s1 [Aminopyrimidine, 3] |  |  | 890 | 430
6 | Cc1nc(C)c(-c2ccnc(Nc3ccc(N)cc3)n2)s1 [Aminopyrimidine, 4] |  |  | 3800 | 230
7 | Cc1nc(C)c(-c2ccnc(Nc3ccc(N4CCOCC4)cc3)n2)s1 [Aminopyrimidine, 5] |  |  | 4000 | 2000
8 | Cc1nc(C)c(-c2ccnc(Nc3ccc(N4CCNCC4)cc3)n2)s1 [Aminopyrimidine, 6] |  |  | 640 | 1100
9 | Cc1nc(C)c(-c2ccnc(Nc3ccc(N4CCN(C)CC4)cc3)n2)s1 [Aminopyrimidine, 7] |  |  | 160 | 1020
10 | Cc1nc(C)c(-c2ccnc(Nc3ccc(N4CCN(CCO)CC4)cc3)n2)s1 [Aminopyrimidine, 8] |  |  | 430 | 2200
11 | CNc1nc(C)c(-c2ccnc(Nc3ccc(N4CCNCC4)cc3)n2)s1 [Aminopyrimidine, 10] |  |  | 7 | 
12 | COc1ccc(OC)c2c(=S)c3ccccc3[nH]c12 [NSC625987] | 200 | > 100000 |  | 
